From patent US10882864B2, “Process for preparing BTK inhibitors” (Genentech, Inc., priority 2016, dated 2021)
Converted amounts (≈) assume the structure as drawn. Where two headings read alike, the source gives them in different places.

Assay: Solubility in various solvents (sonicated at 25° C., centrifuged, filtered, HPLC)
Assay type: physicochemical
Conditions: thermodynamic from solid, read-out: Solubility (mg/mL at 25° C.)
Method: (§1) The solubility of compound 141 was evaluated in various solvents. In the evaluation, a compound 141 sample was place into a 1.5 mL vial, 1 mL of the solvent was added, and the mixture was sonicated at 25° C. for 5 minutes. The mixture was then centrifuged, the upper supernatant was filtered through a microfilter, a filtrate aliquot was taken, diluted with acetonitrile, filtered, and injected into an HPLC column. The results are summarized in Example 8 Table 4 below where the purity of compound 141 was greater than 98 area % by HPLC.
as §1, with “compound 180” for “compound 141”, “was placed” for “was place”, “Example 9” for “Example 8”

[1] = organic solvent or mixture, solvent Acetone
[2] = organic solvent or mixture, solvent Acetonitrile
[3] = organic solvent or mixture, solvent Dichloromethane
[4] = organic solvent or mixture, solvent Dimethylformamide
[5] = organic solvent or mixture, solvent Ethanol
[6] = organic solvent or mixture, solvent Ethyl acetate
[7] = organic solvent or mixture, solvent Heptane
[8] = organic solvent or mixture, solvent Isopropanol
[9] = organic solvent or mixture, solvent Methanol
[10] = organic solvent or mixture, solvent Methyl tetrahydrofuran
[11] = organic solvent or mixture, solvent Petroleum ether
[12] = organic solvent or mixture, solvent Tetrahydrofuran
[13] = organic solvent or mixture, solvent Toluene
[14] = organic solvent or mixture, solvent tert-Butyl methyl ether

| solubility at 5 min (organic solvent or mixture, solvent Dioxane) | SMILES | solubility at 5 min [1] | solubility at 5 min [2] | solubility at 5 min [3] | solubility at 5 min [4] | solubility at 5 min [5] | solubility at 5 min [6] | solubility at 5 min [7] | solubility at 5 min [8] | solubility at 5 min [9] | solubility at 5 min [10] | solubility at 5 min [11] | solubility at 5 min [12] | solubility at 5 min [13] | solubility at 5 min [14] | solubility at 5 min (solvent Water) |
| --- | --- | --- | --- | --- | --- | --- | --- | --- | --- | --- | --- | --- | --- | --- | --- | --- |
|  | C[C@H]1CN(C2COC2)CCN1c1ccc(N)nc1 [Compound 141] | 154 mg/mL (≈ 619 mM) | 97.7 mg/mL (≈ 393 mM) | 269 mg/mL (≈ 1080 mM) | 200 mg/mL (≈ 803 mM) | 154 mg/mL (≈ 618 mM) | 82.3 mg/mL (≈ 331 mM) | 0.32 mg/mL (≈ 1.29 mM) | 222 mg/mL (≈ 895 mM) | 221 mg/mL (≈ 892 mM) | 83 mg/mL (≈ 334 mM) | 0.26 mg/mL (≈ 1.05 mM) | 175 mg/mL (≈ 705 mM) | 20.6 mg/mL (≈ 83 mM) | 7.39 mg/mL (≈ 29.8 mM) | 30.7 mg/mL (≈ 124 mM) |
| 44.7 mg/mL (≈ 103 mM) | C[C@H]1CN(C2COC2)CCN1c1ccc(Nc2cc(Br)cn(C)c2=O)nc1 [Compound 180] | 3.73 mg/mL (≈ 8.59 mM) | 2.3 mg/mL (≈ 5.3 mM) | 50.6 mg/mL (≈ 116 mM) | 20.8 mg/mL (≈ 47.9 mM) | 1.52 mg/mL (≈ 3.5 mM) | 4.53 mg/mL (≈ 10.4 mM) | 0.03 mg/mL (≈ 0.0691 mM) | 2.65 mg/mL (≈ 6.1 mM) | 1.35 mg/mL (≈ 3.11 mM) | 7.19 mg/mL (≈ 16.6 mM) | 0.03 mg/mL (≈ 0.0691 mM) | 24 mg/mL (≈ 55.3 mM) | 9.81 mg/mL (≈ 22.6 mM) | 1.25 mg/mL (≈ 2.88 mM) | 0.52 mg/mL (≈ 1.2 mM) |
